Measurements as given in patent publication US9751865B2, “Dihydro-hydantoin derivatives with herbicidal activity” (SYNGENTA PARTICIPATIONS AG, priority 2013, dated 2017).

Key:
Assay type in all cases: in vivo
Abutilon theophrasti [1] = experiment: Pre-emergence herbicidal activity, ABUTH; design: key: 5=total damage to plant; 0=no damage to plant; details: application pre-emergence, 1000 g/Ha, evaluated after 13 days, scale 0-5
Method: (§1) Seeds of a variety of test species were sown in standard soil in pots. After cultivation for one day (pre-emergence) under controlled conditions in a glasshouse (at 24/16° C., day/night; 14 hours light; 65% humidity), the plants were sprayed with an aqueous spray solution derived from the formulation of the technical active ingredient in acetone/water (50:50) solution containing 0.5% Tween 20 (polyoxyethelyene sorbitan monolaurate, CAS RN 9005-64-5). The test plants were then grown in a glasshouse under controlled conditions (at 24/16° C., day/night; 14 hours light; 65% humidity) and watered twice daily. After 13 days, the test was evaluated (5=total damage to plant; 0=no damage to plant).

Amaranthus retroflexus [2] = experiment: Pre-emergence herbicidal activity, AMARE; design: key: 5=total damage to plant; 0=no damage to plant; details: application pre-emergence, 1000 g/Ha, evaluated after 13 days, scale 0-5
Method: as §1

Echinochloa crus-galli [3] = experiment: Pre-emergence herbicidal activity, ECHCG; design: key: 5=total damage to plant; 0=no damage to plant; details: application pre-emergence, 1000 g/Ha, evaluated after 13 days, scale 0-5
Method: as §1

Setaria faberi [4] = experiment: Pre-emergence herbicidal activity, SETFA; details: application pre-emergence, 1000 g/Ha, evaluated after 13 days, scale 0-5
Method: as §1

Alopecurus myosuroides [5] = experiment: Pre-emergence herbicidal activity, ALOMY; details: application pre-emergence, 1000 g/Ha, evaluated after 13 days, scale 0-5
Method: as §1

Zea mays [6] = experiment: Pre-emergence herbicidal activity, ZEAMX; design: key: 5=total damage to plant; 0=no damage to plant; details: application pre-emergence, 1000 g/Ha, evaluated after 13 days, scale 0-5
Method: as §1

Abutilon theophrasti [7] = experiment: Post-emergence herbicidal activity, ABUTH; design: key: 5=total damage to plant; 0=no damage to plant; details: application post-emergence, 1000 g/Ha, evaluated after 13 days, scale 0-5
Method: (§2) Seeds of a variety of test species were sown in standard soil in pots. After 8 days cultivation (post-emergence) under controlled conditions in a glasshouse (at 24/16° C., day/night; 14 hours light; 65% humidity), the plants were sprayed with an aqueous spray solution derived from the formulation of the technical active ingredient in acetone/water (50:50) solution containing 0.5% Tween 20 (polyoxyethelyene sorbitan monolaurate, CAS RN 9005-64-5). The test plants were then grown in a glasshouse under controlled conditions (at 24/16° C., day/night; 14 hours light; 65% humidity) and watered twice daily. After 13 days, the test was evaluated (5=total damage to plant; 0=no damage to plant).

Setaria faberi [8] = experiment: Post-emergence herbicidal activity, SETFA; design: key: 5=total damage to plant; 0=no damage to plant; details: application post-emergence, 1000 g/Ha, evaluated after 13 days, scale 0-5
Method: as §2

Amaranthus retroflexus [9] = experiment: Post-emergence herbicidal activity, AMARE; design: key: 5=total damage to plant; 0=no damage to plant; details: application post-emergence, 1000 g/Ha, evaluated after 13 days, scale 0-5
Method: as §2

Echinochloa crus-galli [10] = experiment: Post-emergence herbicidal activity, ECHCG; design: key: 5=total damage to plant; 0=no damage to plant; details: application post-emergence, 1000 g/Ha, evaluated after 13 days, scale 0-5
Method: as §2

Zea mays [11] = experiment: Post-emergence herbicidal activity, ZEAMX; design: key: 5=total damage to plant; 0=no damage to plant; details: application post-emergence, 1000 g/Ha, evaluated after 13 days, scale 0-5
Method: as §2

Alopecurus myosuroides [12] = experiment: Post-emergence herbicidal activity, ALOMY; design: key: 5=total damage to plant; 0=no damage to plant; details: application post-emergence, 1000 g/Ha, evaluated after 13 days, scale 0-5
Method: as §2

Structure (SMILES)	ABUTH damage score (Abutilon theophrasti [1])	AMARE damage score (Amaranthus retroflexus [2])	ECHCG damage score (Echinochloa crus-galli [3])	SETFA damage score (Setaria faberi [4])	ALOMY damage score (Alopecurus myosuroides [5])	ZEAMX damage score (Zea mays [6])	ABUTH damage score (Abutilon theophrasti [7])	SETFA damage score (Setaria faberi [8])	AMARE damage score (Amaranthus retroflexus [9])	ECHCG damage score (Echinochloa crus-galli [10])	ZEAMX damage score (Zea mays [11])	ALOMY damage score (Alopecurus myosuroides [12])
CON1C(=O)N(c2cc3n(n2)CCC3(C)C)C(O)C1C (stereo not drawn) [Compound A1]	5	5	5	4	4	3	5	5	5	5	5	4
CC1C(O)N(c2cc(C(F)(F)F)n(C)n2)C(=O)N1C (stereo not drawn) [Compound A2, 4-hydroxy-1,5-dimethyl-3-[1-methyl-5-(trifluoromethyl)pyrazol-3-yl]imidazolidin-2-one]	5	5	4	4	4	4	5	5	5	5	4	5
CON1C(=O)N(c2cc(C(C)(C)C)n(C)n2)C(O)C1C (stereo not drawn) [Compound A3]	5	5	4	4	4	3	5	5	5	5	4	5
CON1C(=O)N(c2cc(C(F)(F)F)n(C)n2)C(O)C1C (stereo not drawn) [Compound A4, 4-hydroxy-1-methoxy-5-methyl-3-[1-methyl-5-(trifluoromethyl)pyrazol-3-yl]imidazolidin-2-one]	5	5	4	4	4	3	5	5	5	5	5	5
COC(C)(C)c1cc(N2C(=O)N(C)CC2O)nn1C (stereo not drawn) [Compound A18]	5	5	4	4	–	2	5	5	5	4	2	–
CON1C(=O)N(c2cc(C(C)(C)OC)n(C)n2)C(O)C1C (stereo not drawn) [Compound A19]	5	5	4	4	–	2	5	5	5	5	3	–
COC(C)(C)c1cc(N2C(=O)N(C)C(C)C2O)nn1C (stereo not drawn) [Compound A20]	5	5	4	4	–	2	5	4	5	5	3	–
COCC1C(O)N(c2cc(C(C)(C)OC)n(C)n2)C(=O)N1C (stereo not drawn) [Compound A21]	5	5	4	4	–	2	5	4	5	3	2	–
COCC1C(O)N(c2cc(C(C)(C)C)n(C)n2)C(=O)N1C (stereo not drawn) [Compound A22]	5	5	1	1	2	0	5	5	5	5	4	–
